Measurements as given in article PMC7738871, “Covalent modification of Keap1 at Cys77 and Cys434 by pubescenoside a suppresses oxidative stress-induced NLRP3 inflammasome activation in myocardial ischemia-reperfusion injury” (Theranostics, 2021).

Tests used:
NLRP3 inflammasome = experiment: OGD/R-induced NLRP3 inflammasome activation in primary cardiomyocytes; assay type: cell-based, mouse; details: OGD 3 h, reperfusion 18 h, dose-dependent
Method: The heart was removed from the neonatal C57BL/6 mice and cut into 1 mm^3 pieces in ice […] buffer. The tissues were digested with the mixture of 0.125% trypsin (Gibco, 15090-046) and 0.1% type II collagenase (Gibco, 17101-015) 6 min at 37 °C for three times until the tissues were completely digested. The cells were harvested and seeded in a dish. After 90 min of incubation, the cell culture medium was collected and centrifuged. The centrifuged cardiomyocytes were harvested, seeded on 0.1 % gelatin-coated culture plates with DMEM containing 10% FBS and […] Brdu, and incubated in a 37°C incubator.
Total protein was isolated from H9c2 cells, primary mouse cardiomyocytes, RAW264.7 cells and heart tissue using 1X RIPA buffer containing phosphatase and proteinase inhibitors at 4 °C. […] After the membranes was washed by TBST buffer for three times, they were incubated with horseradish peroxidase (HRP)-conjugated secondary mouse or rabbit antibodies (1:3,000 dilution) at room temperature (RT) for 1.5 h and then detected by SuperEnhanced chemiluminescence (ECL) reaction reagents (GBCBIO Technologies Inc., Guangzhou, Guangdong, China). […] After letting the membranes stand for 1-2 min, the bands of the respective proteins were detected with the exposure time of 10 ~60 s.

Keap1 = system: T1, Keap1; experiment: Pull-down with PBA-Sepharose 4B beads, cell lysate; assay type: binding; details: 4 °C, immunoblot, Sepharose 4B beads only as negative control
T1 construct: endogenous in cells; host or cells: RAW264.7
Method: PBA-Sepharose 4B beads were created by dissolving PBA in coupling buffer (100 mM NaHCO3, pH 8.3, 0.5 M NaCl). After washing with 1 mM HCl medium, Sepharose 4B beads were mixed with PBA coupling buffer and slowly rotated overnight at 4 °C. Excess PBA was washed away with coupling buffer and any remaining active groups were blocked with 0.1 M Tris-HCl buffer (pH 8.0) for 2 h. The medium was then washed with 0.1 M acetate buffer (pH 4.0) containing 0.5 M NaCl followed by a wash with 0.1 M Tris-HCl (pH 8.0) that also contained 0.5 M NaCl. PBA-Sepharose 4B beads were ready for use in the pull-down assay. The RAW264.7 cellular supernatant fraction (600 µg) was incubated with either PBA-Sepharose 4B or Sepharose 4B as a negative control in reaction buffer (50 mM Tris-HCl, pH 7.5, 5 mM EDTA, 150 mM NaCl, 1 mM DTT, 0.01% NP-40, 2 µg/mL of BSA, 0.02 mM PMSF, 1 × protease inhibitor cocktail). After incubation with gentle rocking overnight at 4 °C, the beads were washed five times with wash buffer (50 mM Tris-HCl, pH 7.5, 5 mM EDTA, 150 mM NaCl, 1 mM DTT, 0.01% NP-40, 0.02 mM PMSF) and proteins bound to the beads were analyzed by immunoblotting assay with a Keap1 antibody.

[1] = system: LAD-induced myocardial ischemia-reperfusion model in mice; experiment: LAD-induced myocardial ischemia-reperfusion model; assay type: in vivo, mouse
Method: The experimental procedures and protocols were approved by the Committee on Ethical USE of Animals of International Institute for Translational Chinese Medicine, Guangzhou University of Chinese Medicine (No. IITCM-20180115). Adult male C57BL/6 mice were purchased from the Laboratory Animal Center, Sun Yat-Sen University (Guangzhou, Guangdong, China), and Nrf2 knockout mice were obtained from Riken. Adult male C57BL/6 or Nrf2 knockout mice were treated with 30 mg/kg PBA or an equal volume of vehicle 15 min prior to reperfusion. Mice were divided into 6 groups: (1) Wild-type sham (n = 10): C57BL/6 mice received vehicle, as the sham group; (2) Wild-type AMI/R group (n = 10): C57BL/6 mice received vehicle (i.p.) 15 min before reperfusion; (3) Wild-type AMI/R plus PBA group (n = 10): C57BL/6 mice received 30 mg/kg PBA (i.p.) 15 min before reperfusion; (4) Nrf2 knockout sham (n = 8) : Nrf2 knockout mice received vehicle (i.p.), as in the sham group; (5) Nrf2 knockout AMI/R group (n = 8): Nrf2 knockout mice received vehicle (i.p.) 15 min before reperfusion; (6) Nrf2 knockout AMI/R plus PBA group (n = 8): Nrf2 knockout mice received 30 mg/kg PBA (i.p.) 15 min before reperfusion. PBA was dissolved in 0.9% NaCl buffer containing 2% EtOH. The vehicle was 0.9% NaCl buffer containing 2% EtOH.
The C57BL/6 mice or Nrf2 knockout mice underwent myocardial ischemia-reperfusion injury as described previously. In brief, mice were anaesthetized by i.p. injection of sodium pentobarbital at a dose of 50 mg/kg and ventilated under a pressure-control VentStar R415 ventilator (RWD Life Science Inc., Shenzhen, China). Following thoracotomy between the 3rd and 4th intercostal spaces, the mouse heart was exposed. The LAD was ligated with an 8-0 silk suture and the PE10 tube for 30 min. PBA and vehicle were i.p. injected 15 min prior to reperfusion. After 30 min of ischemia, the suture with PE10 tube was removed. At the end of 24 h of reperfusion, the LAD was relegated, and 1% Evans blue dye was injected to measure the area at risk (AAR). The hearts of the mice were collected, and frozen at -80 °C for 10 min and cut into 5 slices. The slices were incubated with 1% 2,3,5-triphenyltetrazolium chloride (TTC, Santa Cruz, USA) at 37 °C for 15 min and fixed with 4% paraformaldehyde overnight. The slices were captured and the areas of AAR and IA were quantified by using ImageJ software.
Hemodynamic measurements were performed using a PV-loop catheter (Transonic Systems Inc., Ithaca, NY, USA). Hemodynamic measurements were analysed using Ponemah 7700 modules software according to a standardized protocol. The maximum rate of rise of left ventricular pressure increase (+dp/dtmax) and the maximum rate of rise of left ventricular pressure decrease (-dp/dtmax) were calculated for all mice.
Echocardiography was performed on mice at the end of reperfusion. In brief, mice were re-anesthetized with isoflurane and subjected to the Vevo 2100 System (VisualSonics Inc., Toronto, Canada). M-mode was used to obtain LV dimensions in diastole and systole according to the standard procedures and calculations. Left ventricular end systolic diameter (LVESD), left ventricular end diastolic diameter (LVEDD), left ventricular end systolic volume (LVSV) and left ventricular end diastolic volume (LVDV) were measured. And the left ventricular ejection fraction (LVEF) and left ventricular fractional shortening (LVFS) values were calculated using Vevostrain software as parameters indicating cardiac function.

[2] = 30 mg/kg i.p., 24 hours after AMI/R

C=C(COC(=O)C=Cc1ccc(O)c(O)c1)C(O)COC1OC(CO)C(O)C(O)C1O (stereo not shown) [PBA, pubescenoside A]
OGD/R-induced inflammasome activation (NLRP3, cleaved-caspase1, mature IL-1β) (NLRP3 inflammasome): substantially inhibited | binding of Keap1 to PBA-Sepharose 4B beads (pull-down) (Keap1): could bind | myofibrillar structure (H&E staining) ([1]; 30 mg/kg): preserved myofibrillar structure | recruitment of inflammatory cells (H&E staining) ([1]; 30 mg/kg): reduced the recruitment of inflammatory cells | cardiac infarct size ([1]; 30 mg/kg i.p. 15 min before reperfusion, 30 min ischemia, 24 h reperfusion): significantly reduce | level of CK-MB ([1]; 30 mg/kg i.p., 30 min ischemia, 24 h reperfusion, blood, ELISA): significantly reduce | +dp/dtmax [1, 2]: increasing | -dp/dtmax [1, 2]: increasing | LVEF [1, 2]: increasing | LVESD [1, 2]: decreasing | LVFS [1, 2]: increasing | LVSV [1, 2]: decreasing | NLRP3 inflammasome activation in heart tissue ([1]; AMI/R-injured mice, western blot): attenuated
